Measured values: patent publication US20170275302A1, “INHIBITORS OF THE RENAL OUTER MEDULLARY POTASSIUM CHANNEL” (Merck Sharp & Dohme Corp., priority 2014, published 2017)

These molecules were tested against T1, hROMK (hKir1.1) (Homo sapiens, UniProt P48048) (assay: Thallium Flux Assay (ROMK channel functional thallium flux assay, FLIPR-Tetra)). Details: HEK293 cells stably expressing hROMK (hKir1.1); FluxOR thallium flux, 30 min compound incubation; concentration inhibiting 50% of ROMK thallium flux signal.
T1 construct: expressed in transfected cells
T1 sequence (P48048 1-391): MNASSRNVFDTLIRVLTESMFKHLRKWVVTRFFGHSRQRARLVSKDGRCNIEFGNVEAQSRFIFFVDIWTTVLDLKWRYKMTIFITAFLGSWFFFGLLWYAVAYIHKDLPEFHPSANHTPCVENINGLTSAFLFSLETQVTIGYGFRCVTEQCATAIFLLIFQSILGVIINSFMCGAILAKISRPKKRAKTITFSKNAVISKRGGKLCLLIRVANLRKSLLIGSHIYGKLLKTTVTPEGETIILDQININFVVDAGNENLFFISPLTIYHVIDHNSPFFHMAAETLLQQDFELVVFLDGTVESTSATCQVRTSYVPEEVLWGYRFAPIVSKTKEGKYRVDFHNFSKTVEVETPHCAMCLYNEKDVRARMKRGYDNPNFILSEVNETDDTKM
Assay type: cell-based
Experimental: The following Thallium Flux Assay was performed on each of the final product compounds in the Examples.
HEK293 cells stably expressing hROMK (hKir1.1) were grown at 37° C. in a 10% CO2 humidified incubator in complete growth media: Dulbecco's Modified Eagle Medium supplemented with non-essential amino acids, Penicillin/Streptomycin/Glutamine, G418 and FBS. At >80% confluency, the media was aspirated from the flask and rinsed with 10 mL calcium/magnesium-free phosphate buffered saline (PBS). 5 mL of 1× trypsin (prepared in Ca/Mg Free PBS) was added to T-225 flask and the flask was returned to 37° C./CO2 incubator for 2-3 minutes. To dislodge the cells, the side of the flask was gently banged with one's hand. The cells were completely titrated and then the cells were transferred to 25 mL complete media, centrifuged at 1,500 rpm for 6 min followed by resuspension in complete growth media, and the cell concentration was determined. For typical re-seeding, 4E6 cells/T-225 flask will attain >80% confluency in 4 days. Under ideal growth conditions and appropriate tissue culture practices, this cell line is stable for 40-45 passages.
Compound Buffer (per microplate): 20 mL Probenecid/Assay Buffer; 0.3 mM ouabain (10 mM ouabain in water can be stored in amber bottle/aluminum foil at room temperature); Test compound
Stimulant Buffer (prepared at 5× final concentration in 1× FluxOR™Chloride-Free Buffer): 7.5 mM thallium sulfate and 0.75 mM potassium sulfate (to give a final assay concentration of 3 mM Thallium/0.3 mM potassium). Store at 4° C. when not in use. If kept sterile, this solution is good for months.
The ROMK channel functional thallium flux assay was performed in 384 wells, using the FLIPR-Tetra instrument. HEK-hKir1.1 cells were seeded in Poly-D-Lysine microplates and kept in a 37° C.-10% CO2 incubator overnight. On the day of the experiment, the growth media was replaced with the FluxOR™ reagent loading buffer and incubated, protected from light, at ambient temperature (23-25° C.) for 90 min. The loading buffer was replaced with assay buffer±test compound followed by 30 min incubation at ambient temperature, where the thallium/potassium stimulant was added to the microplate.
• 1. Seed HEK-hKir1.1 cells (50 μl at 20,000 cells/well) in 384-well PDL coated Microplates • 2. Allow cells to adhere overnight in humidified 37° C./10% CO2 incubator • 3. Completely remove cell growth media from microplate and replace with 25 μl loading buffer • 4. Incubate Microplate at room temperature, protected form light, for 90 min • 5. Remove loading buffer and replace with 25 μl 1× Assay Buffer±test compound. • 6. Incubate microplate at room temperature, protected from light, for 30 min • 7. At FLIPR-Tetra 384: Add stimulant (thallium/potassium) solution to microplate and monitor fluorescence. Excitation=400 nm, Emission=460 & 580 nm. Collect data for ˜10 min.
The fluorescence intensity of wells containing 3 μM of a standard control ROMK inhibitor of the present invention was used to define the ROMK-sensitive component of thallium flux. Fluorescence in the presence of test compounds was normalized to control values to provide % fluorescence change. IC50 values represent the concentration of compound that inhibited 50% of the ROMK thallium flux signal.

SMILES	IC50
Cc1c([C@@H](O)CN2CCC3(CC2)CCN(c2snc4cccnc24)C3=O)ccc2c1COC2=O [Example 83]	33.9 nM
Cc1c([C@@H](O)CN2CCC3(CC2)CCN(c2snc4ncccc24)C3=O)ccc2c1COC2=O [Example 84]	57.1 nM
Cc1c([C@@H](O)CN2CCC3(CC2)CCN(c2snc4ccncc24)C3=O)ccc2c1COC2=O [Example 85]	18.5 nM
Cc1c([C@@H](O)CN2CCC3(CC2)CCN(c2ccn4cncc4c2)C3=O)ccc2c1COC2=O [Example 87]	260 nM
Cc1c([C@@H](O)CN2CCC3(CC2)CCN(c2ccn4nncc4c2)C3=O)ccc2c1COC2=O [Example 88, (R)-2-([1,2,3]triazolo[1,5-a]pyridin-5-yl)-8-(2-hydroxy-2-(4-methyl-1-oxo-1,3-dihydroisobenzofuran-5-yl)ethyl)-2,8-diazaspiro[4.5]decan-1-one]	29.2 nM
Cc1c([C@@H](O)CN2CCC3(CC2)CCN(c2ccc4nonc4c2)C3)ccc2c1COC2=O [Example 90]	98.3 nM
Cc1c([C@@H](O)CN2CCC3(CC2)CCN(c2cnc4nonc4c2)C3)ccc2c1COC2=O [Example 92, (R)-5-(2-(2-([1,2,5]oxadiazolo[3,4-b]pyridin-6-yl)-2,8-diazaspiro[4.5]decan-8-yl)-1-hydroxyethyl)-4-methylisobenzofuran-1(3H)-one]	27.3 nM
Cc1c([C@@H](O)CN2CCC3(CC2)CC(=O)N(c2ccc4nonc4n2)C3)ccc2c1COC2=O [Example 93]	274 nM
Cc1c([C@@H](O)CN2CCC3(CC2)CCN(c2ccc4nonc4n2)C3)ccc2c1COC2=O [Example 95, (R)-5-(2-(2-([1,2,5]oxadiazolo[3,4-b]pyridin-5-yl)-2,8-diazaspiro[4.5]decan-8-yl)-1-hydroxyethyl)-4-methylisobenzofuran-1(3H)-one]	19.2 nM

More lines, now with the values ahead:

IC50	SMILES
172 nM	Cc1c([C@@H](O)CN2CCC3(CC2)CCN(c2ccc4cnnn4c2)C3=O)ccc2c1COC2=O [Example 86]
42.7 nM	Cc1c([C@@H](O)CN2CCC3(CC2)CC(=O)N(c2ccc4nonc4c2)C3)ccc2c1COC2=O [Example 89, (R)-2-(benzo[c][1,2,5]oxadiazol-5-yl)-8-(2-hydroxy-2-(4-methyl-1-oxo-1,3-dihydroisobenzofuran-5-yl)ethyl)-2,8-diazaspiro[4.5]decan-3-one]
699 nM	Cc1c([C@@H](O)CN2CCC3(CC2)CCN(c2nccn4ccnc24)C3)ccc2c1COC2=O [Example 91]
109 nM	Cc1c([C@@H](O)CN2CCC3(CC2)CC(=O)N(c2cnc4nonc4c2)C3)ccc2c1COC2=O [Example 94]
